The values that follow come from patent publication US20230416262A1, “TRPML MODULATORS” (Casma Therapeutics, Inc., priority 2020, published 2023).

For one assay, the system named is TFEB. The experiment in a line: TFEB nuclear translocation assay. In kind it is cell-based. Particulars: Homo sapiens; HeLa wt or HeLa TRPML1 KO cells, treated for 2 hrs; ratio of nuclear to ring-region TFEB intensity. Summed up: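 HeLa wild-type or TRPML1 KO cells treated 2 h with compound at 37 °C, PFA-fixed, immunostained for TFEB (Alexa 488) with Hoechst nuclei. Imaged at ×20, four fields/well. Value is ratio of nuclear to perinuclear-ring TFEB intensity, with nuclei counts.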

The subject of the next assay is THP-1 cells. The experiment in a line: Lamp1 lysosomal exocytosis assay. It is filed as cell-based. To be noted: Homo sapiens, 55 min, 55 min incubation, top dose 20 μM. The gist of the method:
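THP-1 cells (1e5/well) exposed to a 7-point 3-fold compound series, top final 20 μM, for 55 min at 37°C. Surface Lamp1 then stained with Lamp1-PE on ice in buffer containing 80 μM Dynasore, and read by flow cytometry as PE geometric mean on live, sytox-negative singlets.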

SMILES strings stand for the structures.

In the case of `CC1(C)Cc2cc(S(=O)(=O)N3CC4(CCCC4)c4ccccc43)ccc2O1` [Compound I-2, 1′-[(2,2-dimethyl-2,3-dihydro-1-benzofuran-5-yl)sulfonyl]-1′,2′-dihydrospiro[cyclopentane-1,3′-indole]], the EC50 is 2.01 to 8 µM in the assay on TFEB and no less than 5.01 µM in the assay on THP-1 cells.

Consider `CC1(C)COc2ccc(S(=O)(=O)N3CC4(CCCC4)c4ccccc43)cc21` [Compound I-5, 1′-[(3,3-dimethyl-2,3-dihydro-1-benzofuran-5-yl)sulfonyl]-1′,2′-dihydrospiro[cyclopentane-1,3′-indole]], for which the EC50 in the assay with TFEB was no more than 2 µM; with THP-1 cells it was no less than 5.01 µM.

For the compound `O=S(=O)(c1ccc(OC(F)(F)F)cc1)N1CC2(CCCC2)c2ccccc21` [Compound I-31, 1′-[4-(trifluoromethoxy)benzenesulfonyl]-1′,2′-dihydrospiro[cyclopentane-1,3′-indole]], the concentration giving a half-maximal response (EC50) with TFEB was 2.01 to 8 µM; in the assay with THP-1 cells, no less than 5.01 µM.

Take `O=S(=O)(c1ccc2c(c1)CCC(C(F)F)O2)N1CC2(CCCC2)c2ccccc21` (centres unmarked) [Compound I-35, 1′-{[2-(difluoromethyl)-3,4-dihydro-2H-1-benzopyran-6-yl]sulfonyl}-1′,2′-dihydrospiro[cyclopentane-1,3′-indole]]: the EC50 was 2.01 to 8 µM with TFEB and no less than 5.01 µM in the assay on THP-1 cells.

In the case of `O=S(=O)(c1ccc(C2CC2(F)F)cc1)N1CC2(CCCC2)c2ccccc21` (centres unmarked) [Compound I-48, 1′-[4-(2,2-difluorocyclopropyl)benzenesulfonyl]-1′,2′-dihydrospiro[cyclopentane-1,3′-indole]], the values for the EC50 in the assay with TFEB and with THP-1 cells were 2.01 to 8 µM and no less than 5.01 µM, respectively.

As to `CC1(C)Oc2ccc(S(=O)(=O)N3CC4(CCCC4)c4ccccc43)cc2O1` [Compound I-57, 1′-[(2,2-dimethyl-2H-1,3-benzodioxol-5-yl)sulfony1]-1′,2′-dihydrospiro[cyclopentane-1,3′-indole]], the EC50 in the assay with TFEB is 2.01 to 8 µM; in the assay with THP-1 cells, no less than 5.01 µM.

With `O=S(=O)(c1ccc2c(c1)CCC2)N1CC2(CCCC2)c2ccccc21` [Compound I-67, 1′-((2,3-dihydro-1H-inden-5-yl)sulfonyl)spiro[cyclopentane-1,3′-indoline]], the results for the EC50 in the assay with TFEB and in the assay on THP-1 cells were 2.01 to 8 µM and no less than 5.01 µM, respectively.

Take `CN(C)S(=O)(=O)c1ccc(S(=O)(=O)N2CC3(CCCC3)c3ccccc32)cc1` [Compound I-68, 4-({1′,2′-dihydrospiro[cyclopentane-1,3′-indol]-1′-yl}sulfonyl)-N,N-dimethylbenzene-1-sulfonamide]: the half-maximal effective concentration (EC50) in the assay with TFEB was no more than 2 µM; in the assay on THP-1 cells it was no more than 0.5 µM.

In the case of `CN(C)S(=O)(=O)c1ccc(S(=O)(=O)N2CC3(CCN(C(=O)C(C)(C)C)C3)c3ccccc32)cc1` (centres unmarked) [Compound I-73, 4-{[1′-(2,2-dimethylpropanoyl)-1,2-dihydrospiro[indole-3,3′-pyrrolidin]-1-yl]sulfonyl}-N,N-dimethylbenzene-1-sulfonamide], the EC50 was 2.01 to 8 µM with TFEB and no less than 5.01 µM in the assay on THP-1 cells.

Regarding `Cc1cccc(S(=O)(=O)N2CC3(CCCC3)c3ccccc32)c1` [Compound I-74, 1′-(3-methylbenzenesulfonyl)-1′,2′-dihydrospiro[cyclopentane-1,3′-indole]], the EC50 with TFEB is 2.01 to 8 µM; in the assay with THP-1 cells, no less than 5.01 µM.

As to `Cc1ccc2c(c1)N(S(=O)(=O)c1ccc(S(=O)(=O)N(C)C)cc1)CC21CCCC1` [Compound I-79, N,N-dimethyl-4-((6′-methylspiro[cyclopentane-1,3′-indolin]-1′-yl)sulfonyl)benzenesulfonamide], the EC50 in the assay with TFEB is no more than 2 µM; in the assay with THP-1 cells, no more than 0.5 µM.

Turning to `O=C(OCc1ccccc1)N1CCC2(CC1)CN(S(=O)(=O)Cc1ccccc1)c1ccccc12` [Compound I-80, benzyl 1-(benzylsulfonyl)spiro[indoline-3,4′-piperidine]-1′-carboxylate], the half-maximal effective concentration (EC50) in the assay on TFEB was no more than 2 µM; in the assay with THP-1 cells, no less than 5.01 µM.

As to `O=C(OCc1ccccc1)N1CCC2(CC1)CN(S(=O)(=O)c1ccc(C(F)F)cc1)c1ccccc12` [Compound I-81], the figures for the 50% effective concentration (EC50) with TFEB and in the assay with THP-1 cells were no more than 2 µM and no more than 0.5 µM, respectively.

Take `CN1CCC2(CC1)CN(S(=O)(=O)c1ccc(C(F)F)cc1)c1ccccc12` [Compound I-83]: the EC50 with TFEB was no less than 10 µM; in the assay on THP-1 cells, no less than 5.01 µM.

Turning to `O=S(=O)(c1ccc(C(F)F)cc1)N1CC2(CCN(CC(F)(F)F)CC2)c2ccccc21` [Compound I-86, 1-[4-(difluoromethyl)benzenesulfonyl]-1′-(2,2,2-trifluoroethyl)-1,2-dihydrospiro[indole-3,4′-piperidine]], the figures for the EC50 in the assay on TFEB and in the assay with THP-1 cells were no more than 2 µM and no less than 5.01 µM, respectively.

For the compound `CN(C)S(=O)(=O)c1ccc(S(=O)(=O)N2CC3(CCN(CC(F)(F)F)CC3)c3ccccc32)cc1` [Compound I-87, N,N-dimethyl-4-{[1′-(2,2,2-trifluoroethyl)-1,2-dihydrospiro[indole-3,4′-piperidin]-1-yl]sulfonyl}benzene-1-sulfonamide], the concentration giving a half-maximal response (EC50) in the assay on TFEB was no more than 2 µM; with THP-1 cells it was 0.51 to 1 µM.

With `O=C(OCc1ccccc1)N1CCC2(C1)CN(S(=O)(=O)c1ccc(C(F)F)cc1)c1ccccc12` (centres unmarked) [Compound I-91, benzyl 1-[4-(difluoromethyl)benzenesulfonyl]-1,2-dihydrospiro[indole-3,3′-pyrrolidine]-1′-carboxylate], the concentration giving a half-maximal response (EC50) in the assay on TFEB is 2.01 to 8 µM; in the assay on THP-1 cells, no less than 5.01 µM.

With `O=S(=O)(c1ccc(C(F)F)cc1)N1CC2(CCN(CC(F)(F)F)C2)c2ccccc21` (centres unmarked) [Compound I-92, 1-[4-(difluoromethyl)benzenesulfonyl]-1′-(2,2,2-trifluoroethyl)-1,2-dihydrospiro[indole-3,3′-pyrrolidine]], the EC50 was 2.01 to 8 µM in the assay with TFEB and no less than 5.01 µM in the assay with THP-1 cells.

For `CC1(C)COc2ccc(S(=O)(=O)N3CC4(CCCCC4)c4ccccc43)cc21` [Compound I-94, 1′-[(3,3-dimethyl-2,3-dihydro-1-benzofuran-5-yl)sulfonyl]-1′,2′-dihydrospiro[cyclohexane-1,3′-indole]], the values for the EC50 in the assay with TFEB and in the assay on THP-1 cells were no more than 2 µM and no less than 5.01 µM, respectively.

In the case of `CN(C)S(=O)(=O)c1ccc(S(=O)(=O)N2CC3(CCCC3)c3c(F)cccc32)cc1` [Compound I-95, 4-({4′-fluoro-1′,2′-dihydrospiro[cyclopentane-1,3′-indol]-1′-yl}sulfonyl)-N,N-dimethylbenzene-1-sulfonamide], the EC50 in the assay on TFEB was no more than 2 µM; in the assay on THP-1 cells it was no more than 0.5 µM.

As to `CN(C)S(=O)(=O)c1ccc(S(=O)(=O)N2CC3(CCN(CC(C)(F)F)CC3)c3ccccc32)cc1` [Compound I-97, 4-{[1′-(2,2-difluoropropyl)-1,2-dihydrospiro[indole-3,4′-piperidin]-1-yl]sulfonyl}-N,N-dimethylbenzene-1-sulfonamide], the figures for the EC50 in the assay with TFEB and in the assay with THP-1 cells were no more than 2 µM and 0.51 to 1 µM, respectively.

In the case of `CN(C)S(=O)(=O)c1ccc(S(=O)(=O)N2CC3(CCN(CC4CCOCC4)CC3)c3ccccc32)cc1` [Compound I-98, N,N-dimethyl-4-({1′-[(oxan-4-yl)methyl]-1,2-dihydrospiro[indole-3,4′-piperidin]-1-yl}sulfonyl)benzene-1-sulfonamide], the figures for the EC50 in the assay with TFEB and in the assay on THP-1 cells were no more than 2 µM and 1.01 to 5 µM, respectively.

For the compound `CN(C)S(=O)(=O)c1ccc(S(=O)(=O)N2CC3(CCCCC3)c3ccccc32)cc1` [Compound I-99, 4-({1′,2′-dihydrospiro[cyclohexane-1,3′-indol]-1′-yl}sulfonyl)-N,N-dimethylbenzene-1-sulfonamide], the EC50 is no more than 2 µM in the assay with TFEB and no more than 0.5 µM in the assay on THP-1 cells.

Compound `CN(C(=O)C1CCC2(CC1)CN(S(=O)(=O)c1ccc(C(F)F)cc1)c1ccccc12)c1nccn1C` (centres unmarked) [Compound I-245, 1′-((4-(difluoromethyl)phenyl)sulfonyl)-N-methyl-N-(1-methyl-1H-imidazol-2-yl)spiro[cyclohexane-1,3′-indoline]-4-carboxamide] showed an EC50 in the assay on THP-1 cells of no less than 5.01 µM.

On to `O=C(CCC(F)(F)F)N1CCC2(CC1)CN(S(=O)(=O)c1ccc(C(F)F)cc1)c1ccccc12` [Compound I-251, 1-(1-((4-(difluoromethyl)phenyl)sulfonyl)spiro[indoline-3,4′-piperidin]-1′-y1)-4,4,4-trifluorobutan-1-one], for which the EC50 in the assay on THP-1 cells was 1.01 to 5 µM.

With `O=C(CCC1CCCO1)N1CCC2(CC1)CN(S(=O)(=O)c1ccc(C(F)F)cc1)c1ccccc12` (centres unmarked) [Compound I-252, 1-(1-((4-(difluoromethyl)phenyl)sulfonyl)spiro[indoline-3,4′-piperidin]-1′-yl)-3-(tetrahydrofuran-2-yl)propan-1-one], the EC50 with THP-1 cells is no less than 5.01 µM.

Take `O=C(CCC1CCOC1)N1CCC2(CC1)CN(S(=O)(=O)c1ccc(C(F)F)cc1)c1ccccc12` (centres unmarked) [Compound I-253, 1-(1-((4-(difluoromethyl)phenyl)sulfonyl)spiro[indoline-3,4′-piperidin]-1′-y1)-3-(tetrahydrofuran-3-yl)propan-1-one]: the concentration giving a half-maximal response (EC50) in the assay on THP-1 cells is no less than 5.01 µM.

In the assay on THP-1 cells, `O=C(COC1CCOC1)N1CCC2(CC1)CN(S(=O)(=O)c1ccc(C(F)F)cc1)c1ccccc12` (centres unmarked) [Compound I-254, 1-(1-((4-(difluoromethyl)phenyl)sulfonyl)spiro[indoline-3,4′-piperidin]-1′-yl)-2-((tetrahydrofuran-3-yl)oxy)ethan-1-one] yielded an EC50 of no less than 5.01 µM.

In the case of `O=C(CC1CCOC1)N1CCC2(CC1)CN(S(=O)(=O)c1ccc(C(F)F)cc1)c1ccccc12` (centres unmarked) [Compound I-255, 1-(1-((4-(difluoromethyl)phenyl)sulfonyl)spiro[indoline-3,4′-piperidin]-1′-yl)-2-(tetrahydrofuran-3-yl)ethan-1-one], the 50% effective concentration (EC50) in the assay with THP-1 cells was no less than 5.01 µM.

`O=C(CC1CCCO1)N1CCC2(CC1)CN(S(=O)(=O)c1ccc(C(F)F)cc1)c1ccccc12` (centres unmarked) [Compound I-256, 1-(1-((4-(difluoromethyl)phenyl)sulfonyl)spiro[indoline-3,4′-piperidin]-1′-y1)-2-(tetrahydrofuran-2-yl)ethan-1-one]: the 50% effective concentration (EC50) in the assay with THP-1 cells is no less than 5.01 µM.

Broadly, the EC50 is the concentration that produces a half-maximal response.
